Results taken from patent US9677109B2, “Rapid determination of microbial growth and antimicrobial susceptibility” (priority 2013, dated 2017).

Experiments:
S. aureus = assay: 2-NBDG uptake fluorescence labeling; type: cell-based; conditions: overnight refrigerator culture, viability verified
Description: (§1) 2-NBDG (Molecular Probes) is a fluorescent derivative (green channel) of D-glucose that is internalized by active bacteria.

E. coli [1] = assay: 2-NBDG uptake fluorescence labeling; type: cell-based; conditions: overnight refrigerator stock, approximately 1 min, 1 μM 2-NBDG
Description: as §1

K. pneumoniae = assay: 2-NBDG uptake fluorescence labeling; type: cell-based; conditions: overnight refrigerator stock, approximately 1 min, 1 μM 2-NBDG
Description: as §1

H. influenzae = assay: 2-NBDG uptake fluorescence labeling; type: cell-based; conditions: overnight refrigerator culture, viability verified
Description: as §1

S. maltophilia (Steno) = assay: MADM (BACcel) growth analysis sensitivity, surveillance mini-BAL; type: cell-based
Description: (§2) Adult MICU patients with identified surrogate were included within 72 hours of intubation and if anticipated to require MV for >48 h. Moribund state or pregnancy were exclusions. Surveillance mini-BAL (Combicath, Plastimed) was performed on Day 1, 3, 5, 7 and 10 of MV. Samples were split and processed for both a) routine respiratory quantitative microbiological culture and sensitivity assays (>48 h result availability) and b) rapid (<8 h) flowcell/surface-capture assays using the MADM system. Viable microorganisms were identified using growth analysis enhanced by a focused VAP antibody panel (S. aureus, P. aeruginosa, A. baumannii). Untypable organisms were also reported. Sensitivity was assessed using growth analysis. Attending physicians were blinded to MADM system results.
(§3) BAL sample were prepared, removing debris and separating microorganisms from other sample material. Sample microorganisms were introduced into a multichannel fluidic cassette as described elsewhere herein. Bacteria were concentrated and retained on the lower surface of all flowcells using low-voltage electrical field (5 min). Antibody labeling of bacteria in flowcells was used to aid identification.
(§4) The automated digital microscopy system was used to perform darkfield imaging of 10 fields of view every 10 minutes for 180 minutes in each flowcell channel. Initial epifluorescence imaging was also performed for antibody detection. […] Identification consisted of probability scores based on microorganism morphology and growth rates. Antibody labeling identification data was also incorporated. Observed microorganisms were then classified as STAU, PSAE, or non-target. Antibiotic responses were used to aid identification when appropriate. Quantitation was performed by counting identified microorganism and computing original specimen CFU/mL.

[2] = tested on: Pseudomonas aeruginosa (PSAE); assay: MADM resistance phenotype test, respiratory specimens; type: cell-based; conditions: for MADM resistance phenotype: PSAE
Description: (§5) (ABCC). Concurrent quantitative culture (qCx) was performed on specimens.
(§6) 20 μL samples of prepared specimen were pipetted into independent flowcell channels and a low-voltage electrical field was applied for 5 minutes. The electrical field concentrated bacteria onto a functional surface coating that immobilized the bacteria on the lower flowcell surface. Each flowcell channel received only one type of test reagent solution that contained a selective agent if required (only for channels used to test AB, sulbactam 32 μg/mL).
(§7) The instrument acquired images at 10-minutes intervals for 180 minutes, using 10 fields of view in each flowcell channel through a 20× objective. Imaging used darkfield illumination. Identification variables included response to selective agents (AB with sulbactam), cell morphology, growth morphology, and growth rate.
(§8) Identification algorithms applied to each individual immobilized bacterial cell. The system measured the amount of change in mass over time to compute growth rates. Identification consisted of computing and combining probability scores for morphology, response to selective media, and growth rates to produce a receiver operating characteristic curve (ROC) to derive classification criteria.

[3] = tested on: Acinetobacter spp. (ABCC); assay: as above; type: cell-based, Acinetobacter sp.; conditions: for MADM resistance phenotype: ABCC specimen (specimen id not given)
[4] = tested on: Pseudomonas aeruginosa (PSAE); assay: Culture (Cx) susceptibility result, respiratory specimens; type: cell-based
Description: (§9) DHMC specimens were 7-21 days old. […] Controls used standard culturing methods (Cx).
as §5

Enteric = assay: MADM (BACcel) growth analysis sensitivity, surveillance mini-BAL; type: cell-based; conditions: specimen 005-D7, BACcel ID Enteric, 1.26 × 10^5 CFU/ml
Description: as §2, §3, §4

[5] = tested on: Staphylococcus aureus (STAU); assay: MADM resistance phenotype test, respiratory specimens; type: cell-based
Description: as §5, §6, §7, §8

[6] = tested on: Staphylococcus aureus (STAU); assay: Culture (Cx) susceptibility result, respiratory specimens; type: cell-based; further: key: S: susceptible; R: resistant
Description: as §9, §5

E. coli [7] = assay: DiBAC4(3) membrane potential staining; type: cell-based; conditions: heat-killed E. coli, 10 g/ml DiBAC4(3), 15 min at room temp
Description: DiBAC4(3) (Molecular Probes) is an anionic dye that enters depolarized cells (i.e., cells lacking a membrane potential) and fluoresces in the […] channel when it binds to intracellular proteins or membranes. Using this indicator, 18.5% of an overnight refrigerator stock (control) and 95% of heat-killed E. coli stained with 10 µg/ml DiBAC4(3) after a 15 min incubation period at room temp.

[8] = tested on: Klebsiella pneumoniae (KP); assay: MADM ertapenem nonsusceptibility / KPC assay; type: cell-based
Description: We adapted a commercial inverted microscope and camera with custom image analysis software and a purpose-built 32-channel disposable fluidic cassette (FIG. 4A). Cassette flowcells (FIG. 4B) had transparent top and bottom surfaces to allow microscope imaging. The bottom surface was coated with poly-L-lysine to immobilize live bacteria.
We grew isolates on blood agar, suspended colonies in tryptic soy broth for 2 hours, then centrifuged and resuspended log-phase bacteria in low ionic strength electrokinetic buffer.
MADM system analysis was performed using a 32-channel disposable fluidic cassette (FIG. 4A) to measure growth of immobilized bacteria. We separately tested PA clinical isolates for nonsusceptibility (NS) with amikacin (AN) at 32 μg/mL, and AB isolates with imipenem (IMP) at 8 μg/mL or ceftazidime (CAZ) at 8 μg/mL.
10 μL aliquots of 5E+7 CFU/mL were pipetted into separate flowcells for each isolate and test condition. Microorganisms were electrokinetically concentrated onto the flowcell detection surface with an electrical field to the positively charged lower surface to immobilize cells and yield 10-100 bacteria per field of view (FIG. 4B). […] The system measured growth at 10-minute intervals. […] Growth was evaluated, interpreting results for PA, AB, and KP-ETP as NS if growth had not arrested within 3 hours. […]

[9] = tested on: Acinetobacter spp. (ABCC); assay: Culture (Cx) susceptibility result, respiratory specimens; type: cell-based, Acinetobacter sp.; conditions: ABCC specimen (specimen id not given)
Description: as §9, §5

E. coli [10] = assay: Plasmolysis (cell size response to osmotic pressure); type: cell-based; conditions: exposed to 0.9% NaCl
Description: Plasmolysis is a method of detecting membrane integrity by exposing cells to a very hypertonic solution, such as may be performed by subjecting a cell to osmotic pressure by manipulating the concentration of a solute, for example, sodium chloride.

damaged membranes = assay: Propidium iodide membrane integrity staining; type: cell-based; conditions: compared with YO-PRO-1
Description: Propidium iodide (PI; Sigma) is another red fluorescent DNA-intercalcater that penetrates damaged membranes but not intact membranes.

[11] = tested on: heat-killed cells and isopropyl alcohol killed cells; assay: CFDA/CFDA-SE esterase fluorescence in killed cells; type: cell-based; conditions: two hour post-heat-kill delay
Description: Carboxyfluorescein diacetate/carboxyfluorescein diacetate succinimidyl ester (CFDA/CFDA-SE; Molecular Probes) compounds are converted into amine-reactive fluorescent molecules when cleaved by esterases present within active cells. When CFDA-SE is taken up by live cells, the fluorescent molecule produced by esterase cleavage and amine reaction is retained inside the cell. […] The product formed by uptake and processing of CFDA, on the other hand, should be more “leaky” over time and may exit a dead cell. […] Shorter delay times have not yet been investigated but may be compatible with avoiding false positive results while providing a shorter assay period.

[12] = specimen 006-D1, BACcel ID Steno, 7.68 × 10^5 CFU/ml
[13] = specimen 006-D3, BACcel ID Steno, 1.60 × 10^4 CFU/ml

O=[N+]([O-])c1ccc(N[C@H]2C(O)O[C@H](CO)[C@@H](O)[C@@H]2O)c2nonc12 (stereo partly drawn) [2-NBDG]
did not fluoresce: fluorescent labeling (S. aureus) | fluorescent labeling (H. influenzae)
fluorescently labeled: fluorescent labeling (E. coli [1]) | fluorescent labeling (K. pneumoniae)

NCC[C@H](O)C(=O)N[C@@H]1C[C@H](N)[C@@H](O[C@H]2O[C@H](CN)[C@@H](O)[C@H](O)[C@H]2O)[C@H](O)[C@H]1O[C@H]1O[C@H](CO)[C@@H](O)[C@H](N)[C@H]1O [AN, amikacin]
S: MADM resistance phenotype ([2]; specimen DH 430, Mini-BAL) | MADM resistance phenotype ([2]; specimen DH 554, BAL) | MADM resistance phenotype ([2]; specimen DH 641, Mini-BAL) | MADM resistance phenotype [3] | Cx (culture result) susceptibility ([4]; specimen DH 430, Mini-BAL) | Cx (culture result) susceptibility ([4]; specimen DH 554, BAL) | Cx (culture result) susceptibility ([4]; specimen DH 641, Mini-BAL)
growth, TZP-: Phenotype, sensitivity (S. maltophilia (Steno); [12]) | Phenotype, sensitivity (S. maltophilia (Steno); [13])
susceptible: susceptibility ([2]; all PSAE-containing specimens) | susceptibility ([3]; all ABCC-containing specimens)

CC(C)(O/N=C(\C(=O)N[C@@H]1C(=O)N2C(C(=O)[O-])=C(C[n+]3ccccc3)CS[C@H]12)c1csc(N)n1)C(=O)O [CAZ, ceftazidime]
all growth: Phenotype, sensitivity (Enteric)
growth, TZP-: Phenotype, sensitivity (S. maltophilia (Steno); [12]) | Phenotype, sensitivity (S. maltophilia (Steno); [13])

CCC[C@@H]1C[C@@H](C(=O)N[C@@H]([C@H]2O[C@H](SC)[C@H](O)[C@@H](O)[C@H]2O)[C@H](C)Cl)N(C)C1 [CLI, clindamycin]
S: MADM resistance phenotype ([5]; specimen DH 425, Mini-BAL) | MADM resistance phenotype ([5]; specimen DH 427, Mini-BAL) | MADM resistance phenotype ([5]; specimen DH 439, Mini-BAL) | MADM resistance phenotype ([5]; specimen DH 440, BAL) | MADM resistance phenotype ([5]; specimen DH 457, BAL) | MADM resistance phenotype ([5]; specimen DH 485, BAL) | MADM resistance phenotype ([5]; specimen DH 509, BAL) | MADM resistance phenotype ([5]; specimen DH 514, Mini-BAL) | MADM resistance phenotype ([5]; specimen DH 543, BAL) | MADM resistance phenotype ([5]; specimen DH 550, BAL) | MADM resistance phenotype ([5]; specimen DH 556, Mini-BAL) | MADM resistance phenotype ([5]; specimen T12, ETA) | Cx (culture result) susceptibility ([6]; specimen DH 425, Mini-BAL) | Cx (culture result) susceptibility ([6]; specimen DH 427, Mini-BAL) | Cx (culture result) susceptibility ([6]; specimen DH 439, Mini-BAL) | Cx (culture result) susceptibility ([6]; specimen DH 440, BAL) | Cx (culture result) susceptibility ([6]; specimen DH 457, BAL) | Cx (culture result) susceptibility ([6]; specimen DH 485, BAL) | Cx (culture result) susceptibility ([6]; specimen DH 509, BAL) | Cx (culture result) susceptibility ([6]; specimen DH 514, Mini-BAL) | Cx (culture result) susceptibility ([6]; specimen DH 543, BAL) | Cx (culture result) susceptibility ([6]; specimen DH 550, BAL) | Cx (culture result) susceptibility ([6]; specimen DH 556, Mini-BAL) | Cx (culture result) susceptibility ([6]; specimen T12, ETA)

CCCCN1C(=O)C(=CC=Cc2c(O)n(CCCC)c(=O)n(CCCC)c2=O)C(=O)N(CCCC)C1=O [DiBAC4(3)]
95%: cells stained (E. coli [7])

C[C@@H](O)[C@H]1C(=O)N2C(C(=O)O)=C(S[C@@H]3CN[C@H](C(=O)Nc4cccc(C(=O)O)c4)C3)[C@H](C)[C@H]12 [ETP, ertapenem]
fail to grow: growth of susceptible strains ([8]; ETP at 16 μg/mL, FIG. 20)
abnormal growth morphology: growth morphology ([8]; ETP exposure, KPC clinical isolate, FIG. 19)

C[C@@H](O)[C@H]1C(=O)N2C(C(=O)O)=C(SCCN=CN)C[C@H]12 [IMP, imipenem]
S: MADM resistance phenotype ([2]; specimen DH 430, Mini-BAL) | MADM resistance phenotype ([2]; specimen DH 554, BAL) | MADM resistance phenotype ([2]; specimen DH 641, Mini-BAL) | MADM resistance phenotype [3] | Cx (culture result) susceptibility ([4]; specimen DH 430, Mini-BAL) | Cx (culture result) susceptibility ([4]; specimen DH 554, BAL) | Cx (culture result) susceptibility ([4]; specimen DH 641, Mini-BAL) | Cx (culture result) susceptibility [9]

[Cl-].[Na+] [NaCl, sodium chloride]
77%: cells decreasing in size (E. coli [10]; overnight refrigerator stock cultures)
90%: cells that did not exhibit a response (E. coli [10]; heat killed cells)

Cc1onc(-c2ccccc2)c1C(=O)N[C@@H]1C(=O)N2[C@@H]1SC(C)(C)[C@@H]2C(=O)O [OXA, oxacillin]
R: Cx (culture result) susceptibility ([6]; specimen DH 439, Mini-BAL) | Cx (culture result) susceptibility ([6]; specimen T12, ETA)
S: Cx (culture result) susceptibility ([6]; specimen DH 425, Mini-BAL) | Cx (culture result) susceptibility ([6]; specimen DH 427, Mini-BAL) | Cx (culture result) susceptibility ([6]; specimen DH 440, BAL) | Cx (culture result) susceptibility ([6]; specimen DH 457, BAL) | Cx (culture result) susceptibility ([6]; specimen DH 485, BAL) | Cx (culture result) susceptibility ([6]; specimen DH 509, BAL) | Cx (culture result) susceptibility ([6]; specimen DH 514, Mini-BAL) | Cx (culture result) susceptibility ([6]; specimen DH 543, BAL) | Cx (culture result) susceptibility ([6]; specimen DH 550, BAL) | Cx (culture result) susceptibility ([6]; specimen DH 556, Mini-BAL)

CC[N+](C)(CC)CCC[n+]1c(-c2ccccc2)c2cc(N)ccc2c2ccc(N)cc21.[I-].[I-] [PI, Propidium iodide]
not as high as for YO-PRO-1: fluorescent signal intensity vs. background (damaged membranes)

carboxyfluorescein diacetate succinimidyl ester [CFDA-SE]
no fluorescence was observed: fluorescence [11]
